{"source": "patent US9957247B2", "about": "“SecA inhibitors and methods of making and using thereof” (Georgia State University Research Foundation, Inc., priority 2012, dated 2018)", "key": {"BsSecA [1]": {"biological_target": "T1, BsSecA (Bacillus subtilis, UniProt P28366)", "T1 sequence (P28366 whole entry)": "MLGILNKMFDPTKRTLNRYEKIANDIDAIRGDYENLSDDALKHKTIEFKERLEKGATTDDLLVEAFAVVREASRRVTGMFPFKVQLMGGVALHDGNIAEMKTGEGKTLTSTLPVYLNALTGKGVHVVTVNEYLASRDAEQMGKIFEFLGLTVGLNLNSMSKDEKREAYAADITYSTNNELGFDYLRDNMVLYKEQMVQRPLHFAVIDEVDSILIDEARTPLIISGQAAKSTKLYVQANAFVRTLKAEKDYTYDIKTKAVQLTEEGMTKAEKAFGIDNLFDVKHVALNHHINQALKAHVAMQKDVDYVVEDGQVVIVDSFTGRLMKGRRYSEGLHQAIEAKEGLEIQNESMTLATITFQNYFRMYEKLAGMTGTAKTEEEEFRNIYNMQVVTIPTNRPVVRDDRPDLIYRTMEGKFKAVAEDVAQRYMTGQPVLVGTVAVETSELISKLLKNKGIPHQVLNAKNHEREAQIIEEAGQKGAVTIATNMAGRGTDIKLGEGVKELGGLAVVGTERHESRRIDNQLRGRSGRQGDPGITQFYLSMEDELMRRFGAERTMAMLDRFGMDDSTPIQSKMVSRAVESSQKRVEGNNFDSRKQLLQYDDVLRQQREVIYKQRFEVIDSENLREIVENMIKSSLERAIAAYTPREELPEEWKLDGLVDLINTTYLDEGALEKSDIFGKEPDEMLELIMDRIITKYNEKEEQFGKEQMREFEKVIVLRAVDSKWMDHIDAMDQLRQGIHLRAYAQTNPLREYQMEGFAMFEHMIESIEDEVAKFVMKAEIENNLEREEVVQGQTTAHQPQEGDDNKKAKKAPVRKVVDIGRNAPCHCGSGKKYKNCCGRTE", "assay": "biochemical", "assay_type": "biochemical, B. subtilis"}, "EcSecA N68": {"biological_target": "EcSecA N68 (Escherichia coli, UniProt P10408)", "sequence (P10408 1-610)": "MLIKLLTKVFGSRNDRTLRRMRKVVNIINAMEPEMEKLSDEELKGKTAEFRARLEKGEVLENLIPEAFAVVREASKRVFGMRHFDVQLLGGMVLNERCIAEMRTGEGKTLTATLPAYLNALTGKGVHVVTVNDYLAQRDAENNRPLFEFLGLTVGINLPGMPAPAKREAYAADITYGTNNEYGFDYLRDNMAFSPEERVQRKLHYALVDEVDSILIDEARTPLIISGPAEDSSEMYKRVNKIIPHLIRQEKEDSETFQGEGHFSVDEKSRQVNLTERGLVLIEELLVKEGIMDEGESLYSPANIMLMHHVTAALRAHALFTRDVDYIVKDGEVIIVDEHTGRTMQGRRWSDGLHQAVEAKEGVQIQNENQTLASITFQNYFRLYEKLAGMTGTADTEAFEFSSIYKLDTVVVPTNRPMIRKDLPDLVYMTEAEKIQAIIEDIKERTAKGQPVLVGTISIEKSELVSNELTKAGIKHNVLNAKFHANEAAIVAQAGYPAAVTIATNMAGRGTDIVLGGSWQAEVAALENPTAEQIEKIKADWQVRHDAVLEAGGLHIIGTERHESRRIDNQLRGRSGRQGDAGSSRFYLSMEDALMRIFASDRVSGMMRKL", "assay": "biochemical", "assay_type": "biochemical, E. coli"}, "BaSecA1": {"biological_target": "BaSecA1 (Bacillus anthracis, UniProt Q81X26)", "assay": "cell-based", "conditions": "IC50, Ion Channel activity, BGaSecA 1"}, "BsSecA [2]": {"biological_target": "T1, BsSecA", "assay": "cell-based", "design": "species or system B. subtilis", "conditions": "IC50, Ion Channel activity, BsSecA, Table 1"}, "MsSecA": {"biological_target": "MsSecA (Mycolicibacterium smegmatis, UniProt P71533)", "sequence (P71533 whole entry)": "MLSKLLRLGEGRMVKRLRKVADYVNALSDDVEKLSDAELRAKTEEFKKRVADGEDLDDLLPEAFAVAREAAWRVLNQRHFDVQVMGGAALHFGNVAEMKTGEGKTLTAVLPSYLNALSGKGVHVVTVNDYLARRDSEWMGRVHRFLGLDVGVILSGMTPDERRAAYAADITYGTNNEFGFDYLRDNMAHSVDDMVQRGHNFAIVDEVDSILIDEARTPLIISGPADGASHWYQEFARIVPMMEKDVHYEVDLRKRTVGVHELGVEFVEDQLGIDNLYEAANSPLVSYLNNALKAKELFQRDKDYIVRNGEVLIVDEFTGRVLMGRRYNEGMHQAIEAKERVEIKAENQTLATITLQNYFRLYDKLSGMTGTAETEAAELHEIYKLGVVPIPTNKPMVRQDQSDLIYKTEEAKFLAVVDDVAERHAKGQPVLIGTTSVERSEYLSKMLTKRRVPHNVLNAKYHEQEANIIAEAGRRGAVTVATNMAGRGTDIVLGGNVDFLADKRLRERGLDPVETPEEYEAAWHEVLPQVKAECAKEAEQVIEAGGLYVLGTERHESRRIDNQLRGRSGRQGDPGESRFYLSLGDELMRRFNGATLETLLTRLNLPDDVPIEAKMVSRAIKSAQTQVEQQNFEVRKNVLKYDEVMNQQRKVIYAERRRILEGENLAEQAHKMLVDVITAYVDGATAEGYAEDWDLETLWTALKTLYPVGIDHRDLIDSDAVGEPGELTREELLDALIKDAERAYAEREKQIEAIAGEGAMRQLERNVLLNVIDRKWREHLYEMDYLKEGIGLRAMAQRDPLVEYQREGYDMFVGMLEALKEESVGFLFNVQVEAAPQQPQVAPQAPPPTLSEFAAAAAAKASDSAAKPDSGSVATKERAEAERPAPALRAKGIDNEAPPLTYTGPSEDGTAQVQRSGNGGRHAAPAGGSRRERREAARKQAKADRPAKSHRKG", "assay": "SecA-liposomes ion-channel activity in oocytes, MsSecA", "assay_type": "cell-based", "conditions": "Table 1"}, "SpSecA": {"biological_target": "SpSecA (Streptococcus pyogenes, UniProt Q99Y96)", "sequence (Q99Y96 whole entry)": "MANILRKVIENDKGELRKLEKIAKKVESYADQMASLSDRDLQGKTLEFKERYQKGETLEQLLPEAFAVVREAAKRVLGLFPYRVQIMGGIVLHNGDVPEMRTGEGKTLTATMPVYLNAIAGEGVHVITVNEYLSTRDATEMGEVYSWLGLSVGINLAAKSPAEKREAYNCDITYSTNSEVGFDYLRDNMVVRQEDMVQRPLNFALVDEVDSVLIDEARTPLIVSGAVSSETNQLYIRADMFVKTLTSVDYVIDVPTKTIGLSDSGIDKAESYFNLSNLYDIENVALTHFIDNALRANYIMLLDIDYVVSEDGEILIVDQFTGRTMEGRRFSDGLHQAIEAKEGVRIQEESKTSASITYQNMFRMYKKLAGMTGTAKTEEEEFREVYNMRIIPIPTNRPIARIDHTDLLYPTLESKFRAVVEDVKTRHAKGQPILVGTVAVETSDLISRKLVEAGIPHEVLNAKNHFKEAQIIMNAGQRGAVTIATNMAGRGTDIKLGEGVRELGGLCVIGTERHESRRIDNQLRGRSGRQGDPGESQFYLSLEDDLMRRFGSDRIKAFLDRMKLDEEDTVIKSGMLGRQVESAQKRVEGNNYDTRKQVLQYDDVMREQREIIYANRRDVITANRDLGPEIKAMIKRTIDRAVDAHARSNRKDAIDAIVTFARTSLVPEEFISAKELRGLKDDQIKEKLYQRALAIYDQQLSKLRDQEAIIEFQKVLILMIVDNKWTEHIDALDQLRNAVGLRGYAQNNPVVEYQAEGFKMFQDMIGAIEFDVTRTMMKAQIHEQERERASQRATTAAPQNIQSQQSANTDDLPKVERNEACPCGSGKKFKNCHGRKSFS", "assay_type": "cell-based", "conditions": "read-out: IC50, Ion Channel activity, SpSecA"}, "B. anthracis Sterne": {"tested_on": "B. anthracis Sterne", "assay": "microbe, parasite or virus in culture", "assay_type": "cell-based", "conditions": "Bacillus anthracis, read-out: Bacteriostatic MIC95, B. anthracis Sterne"}, "[3]": {"tested_on": "secretion of α-hemolysin, enterotoxin B and TSST-1 by S. aureus Mu50", "assay_type": "cell-based"}, "EcSecA": {"biological_target": "EcSecA (Escherichia coli, UniProt P10408)", "sequence (P0AG99 whole entry)": "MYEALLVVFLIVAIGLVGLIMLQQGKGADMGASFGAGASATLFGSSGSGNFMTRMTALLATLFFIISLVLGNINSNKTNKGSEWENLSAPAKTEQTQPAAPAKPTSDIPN", "sequence (P10408 whole entry)": "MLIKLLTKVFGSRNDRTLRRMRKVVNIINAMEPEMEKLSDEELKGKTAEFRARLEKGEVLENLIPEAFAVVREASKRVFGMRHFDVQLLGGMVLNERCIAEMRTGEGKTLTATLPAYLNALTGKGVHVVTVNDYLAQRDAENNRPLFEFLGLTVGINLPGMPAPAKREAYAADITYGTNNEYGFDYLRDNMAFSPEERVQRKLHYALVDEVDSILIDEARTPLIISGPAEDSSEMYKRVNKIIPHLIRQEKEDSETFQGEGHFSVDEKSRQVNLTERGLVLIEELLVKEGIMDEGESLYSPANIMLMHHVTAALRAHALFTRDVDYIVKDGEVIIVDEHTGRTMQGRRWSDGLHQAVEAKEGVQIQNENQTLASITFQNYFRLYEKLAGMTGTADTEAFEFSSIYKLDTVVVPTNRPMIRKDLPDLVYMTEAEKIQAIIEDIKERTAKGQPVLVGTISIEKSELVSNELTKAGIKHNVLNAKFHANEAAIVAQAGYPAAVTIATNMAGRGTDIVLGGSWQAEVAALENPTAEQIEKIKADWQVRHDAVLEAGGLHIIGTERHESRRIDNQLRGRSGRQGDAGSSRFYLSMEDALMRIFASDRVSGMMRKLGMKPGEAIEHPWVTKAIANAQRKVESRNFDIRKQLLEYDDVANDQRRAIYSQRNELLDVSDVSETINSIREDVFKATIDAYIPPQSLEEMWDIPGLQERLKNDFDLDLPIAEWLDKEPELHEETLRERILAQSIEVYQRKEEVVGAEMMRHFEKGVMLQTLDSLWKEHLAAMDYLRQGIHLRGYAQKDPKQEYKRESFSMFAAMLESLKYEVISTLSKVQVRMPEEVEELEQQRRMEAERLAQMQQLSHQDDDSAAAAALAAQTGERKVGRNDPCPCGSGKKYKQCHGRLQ", "sequence (P0AGA2 whole entry, further chain)": "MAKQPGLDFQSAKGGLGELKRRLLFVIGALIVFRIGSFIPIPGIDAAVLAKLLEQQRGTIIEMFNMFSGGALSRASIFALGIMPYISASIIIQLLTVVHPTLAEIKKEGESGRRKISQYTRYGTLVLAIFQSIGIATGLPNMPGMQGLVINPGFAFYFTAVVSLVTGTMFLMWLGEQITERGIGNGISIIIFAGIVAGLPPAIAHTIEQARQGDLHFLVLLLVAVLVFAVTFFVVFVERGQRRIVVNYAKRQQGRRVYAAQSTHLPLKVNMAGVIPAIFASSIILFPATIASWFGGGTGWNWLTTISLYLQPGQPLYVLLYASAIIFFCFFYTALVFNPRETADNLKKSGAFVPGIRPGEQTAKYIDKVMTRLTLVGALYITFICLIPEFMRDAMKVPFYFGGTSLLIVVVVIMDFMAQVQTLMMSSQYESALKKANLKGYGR", "sequence (P0AG96 whole entry, further chain)": "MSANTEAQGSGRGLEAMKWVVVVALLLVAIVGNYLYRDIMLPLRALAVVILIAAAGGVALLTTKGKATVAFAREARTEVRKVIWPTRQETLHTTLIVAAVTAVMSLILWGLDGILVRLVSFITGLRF", "assay": "biochemical", "conditions": "IC50, Protein Translocation, Table 1"}, "S. aureus Mu50": {"tested_on": "S. aureus Mu50", "assay": "Bactericidal effect, S. aureus Mu50", "conditions": "9 μg/ml, 1 hour at 37° C., FIG. 5"}, "S. aureus 6538 [4]": {"tested_on": "S. aureus 6538", "assay": "Bactericidal effect, S. aureus 6538", "conditions": "9 μg/ml, 1 hour at 37° C., FIG. 5"}, "S. aureus 6538 [5]": {"tested_on": "S. aureus 6538", "assay": "Bacteriostatic effect, S. aureus 6538", "conditions": "Staphylococcus aureus, 6538, read-out: Bacteriostatic effect, MIC, S. aureus 6538"}}}
{"molecule": "CCCCCCC1c2ccc(O)cc2Oc2cc(O)ccc21", "note": "[SCA-50]", "values": [{"measurement": "IC50", "setting": "BsSecA [1]", "value": 33, "unit": "µM"}, {"measurement": "IC50", "setting": "EcSecA N68", "value": 4, "unit": "µM"}, {"measurement": "IC50", "setting": "BaSecA1", "value": 1, "unit": "µM"}, {"measurement": "IC50", "setting": "BsSecA [2]", "value": 2.5, "unit": "µM"}, {"measurement": "IC50", "setting": "MsSecA", "value": 2.5, "unit": "µM"}, {"measurement": "IC50", "setting": "SpSecA", "value": 1.9, "unit": "µM"}, {"measurement": "MIC", "setting": "B. anthracis Sterne", "value": 1.7, "unit": "µg/mL"}, {"measurement": "Amount of α-hemolysin, enterotoxin B, and TSST-1 in the supernatant", "setting": "[3]", "value": "significantly decreased"}, {"measurement": "IC50", "setting": "EcSecA", "value": 38, "unit": "µM"}, {"measurement": "Bactericidal activity, log numbers killed, S. aureus Mu50", "setting": "S. aureus Mu50", "value": "more than 3 log numbers"}, {"measurement": "Bactericidal activity, log numbers killed, S. aureus 6538", "setting": "S. aureus 6538 [4]", "value": 2, "unit": "log numbers"}, {"measurement": "MIC", "setting": "S. aureus 6538 [5]", "value": 3.7, "unit": "µg/mL"}]}
